Results taken from patent publication US10940151B2, “Methods for treating renal disease” (Beth Israel Deaconess Medical Center, Inc., priority 2012, dated 2021).
Entries after “also recorded” stand apart in the source; their conditions may differ.

How the values were obtained:
Type in all cases: cell-based
[1] = tested on: APOL1 expression in endothelial cells; assay: APOL1 expression in endothelial cells treated with TLR3 agonist poly(I:C) and inhibitors; details: TLR3 agonist poly(I:C) (FIG. 8-13)
Experimental: Endothelial cells were treated with the TLR3 agonist poly(I:C) and with JAK inhibitors (FIGS. 8A-8D), Bx795(a TBK1/IKKe inhibitor) (FIG. 9), and chloroquine (FIG. 10). […] The TBK1/IKK e complex is used by both TLR and Rig-like receptor signaling mechanisms, and therefore offers a broader target for inhibition of APOL1 expression than either pathway alone. Chloroquine and similar class of compounds may be particularly useful for inhibiting APOL1 expression when that expression is driven by endosomal pattern recognition receptors such as TLR3, TLR7, TLR8, TLR9, and in some cases TLR4. Even though TLR3 expression is described above as an example, these strategies are likely to be effective in blocking APOL1 expression driven by multiple inflammatory stimuli.
Endothelial cells were treated with the TLR3 agonist poly(I:C) and with NF-κB inhibitors (FIG. 11), PKR inhibitors (FIG. 12), and MAP kinase inhibitors (FIG. 13).

[2] = tested on: APOL1 mRNA expression in endothelial cells; assay: APOL1 mRNA expression in endothelial cells treated with interferon beta and JAK inhibitors; details: interferon beta (FIG. 4A-4C)
Text: JAK inhibitors are in clinical testing for autoimmune disease, transplant immunosuppression, and myelodysplastic syndromes. They are selective, rather than specific, for individual JAK inhibitors. For example, WHI-P131 targets JAK3, INCB018424 (ruxolitinib) targets […] and JAK2, and TG101348 targets JAK2.

[3] = tested on: APOL1 expression in podocytes; assay: APOL1 expression in podocytes treated with TLR3 agonist poly(I:C) and inhibitors; details: podocytes (not shown)
[4] = tested on: APOL1 mRNA expression in endothelial cells; assay: APOL1 mRNA expression in endothelial cells after stimulation with interferons, TLR/RIG agonists or bacterial DNA; details: interferon stimulation (FIG. 3A, 3B)
Text: HIV is a powerful inducer of APOL1 renal disease in individuals with the renal risk genotype. Other viruses such as parvovirus have been associated with FSGS. […] Cells have extracellular, endosomal, and cytoplasmic viral sensors such as TLRs, Rig-L1, and others. These genes are potential targets for reducing APOL1 expression.

APOL1 expression = assay: shRNA knockdown experiments on poly(I:C)-induced APOL1 upregulation; details: polyI:C versus control, GFP virus control (FIG. 14)
Text: To validate pharmacologic targets that may regulate pathogenic APOL1 expression, we used shRNA to determine specific genes that mediate the APOL1 upregulation induced by poly(I:C). These experiments allowed us to confirm targets identified above by pharmacologic methods and to identify additional known targets in these same pathways. […] The data shown in FIG. 14 validates several pathways identified by the pharmacological experiments described above and identifies additional pathways that can be targeted to decrease pathogenic APOL1 expression.

Nc1ccc2ncnc(NCCc3ccc(Oc4ccccc4)cc3)c2c1 [6A4Q, 6-amino-4-(4-phenoxyphenylethylamino) quinazoline]
effect on poly(I:C) induced APOL1 upregulation (in words) [1]: could be inhibited

CC(C)(C)c1ccc(S(=O)(=O)/C=C/C#N)cc1 [Bay 11-7085]
effect on poly(I:C) induced APOL1 upregulation (in words) [1]: could be inhibited

O=C(NCCCNc1nc(Nc2cccc(NC(=O)N3CCCC3)c2)ncc1I)c1cccs1 [Bx795]
effect on poly(I:C) induced APOL1 upregulation (in words) [1]: reduced the poly(I:C) induced increased in APOL1 expression

N#CC[C@H](C1CCCC1)n1cc(-c2ncnc3[nH]ccc23)cn1 [INCB018424]
effect on APOL1 upregulation caused by interferon beta (in words) [2]: block the potentially pathologic upregulation of APOL1

C[S+]([O-])c1ccc(-c2nc(-c3ccncc3)c(-c3ccc(F)cc3)[nH]2)cc1 (stereo not shown) [SB203580]
effect on poly(I:C) induced APOL1 upregulation (in words) [1]: inhibited blocked poly(I:C) induced APOL1 upregulation; also recorded: inhibited APOL1 expression

Oc1c2ccccc2c2c3c(cccc13)N=N2 [SP600125]
inhibition of APOL1 expression [3]: 50%

Cc1cnc(Nc2ccc(OCCN3CCCC3)cc2)nc1Nc1cccc(S(=O)(=O)NC(C)(C)C)c1 [TG101348]
effect on APOL1 upregulation caused by interferon beta (in words) [2]: block the potentially pathologic upregulation of APOL1

COc1cc2ncnc(Nc3ccc(O)cc3)c2cc1OC [WHI-P131]
effect on APOL1 upregulation caused by interferon beta (in words) [2]: block the potentially pathologic upregulation of APOL1

CCN(CC)CCCC(C)Nc1ccnc2cc(Cl)ccc12 (stereo not shown) [chloroquine]
effect on poly(I:C) induced APOL1 upregulation (in words) [1]: reduced the poly(I:C) induced increased in APOL1 expression

O=C1Nc2ccc3ncsc3c2/C1=C/c1c[nH]cn1 [imidazolo-oxindole PKR inhibitor]
effect on poly(I:C) induced APOL1 upregulation (in words) [1]: blocks APOL1 upregulation
effect on poly(I:C) induced APOL1 upregulation (in words) ([1]; listed as drawing 4): completely blocked poly(I:C) induced APOL1 upregulation

interferon gamma: type 2 (gamma) interferon
upregulation of APOL1 [4]: up to 200 fold

polyI:C
stimulation of APOL1 expression (in words) (APOL1 expression): strongly stimulates APOL1 expression
